Assay results: ChEMBL document CHEMBL1148828, “Deoxycholic acid-derived tetraoxane antimalarials and antiproliferatives(1)” (J Med Chem, 2007)

What was measured:
[1] = system: Plasmodium falciparum; assay: Antimalarial activity against Plasmodium falciparum W2; format: functional, organism-based
[2] = system: Plasmodium falciparum; assay: Antimalarial activity against Plasmodium falciparum D6; format: functional, organism-based
[3] = system: Plasmodium falciparum; assay: Antimalarial activity against Plasmodium falciparum TM91C235; format: functional, organism-based
[4] = system: CCRF-CEM; assay: Antiproliferative activity against human CCRF-CEM cells after 48 hrs; format: functional
[5] = system: 786-0; assay: Antiproliferative activity against human 786-0 cells after 48 hrs; format: functional; conditions: Homo sapiens, 786-0, 48 h
[6] = system: NCI; assay: Growth inhibition of human NCI DTP 60 cells; format: functional
[7] = system: LOX IMVI; assay: Antiproliferative activity against human LOX IMVI cells after 48 hrs; format: functional
[8] = system: HL-60; assay: Antiproliferative activity against human HL60 cells after 48 hrs; format: functional
[9] = system: HOP-92; assay: Antiproliferative activity against human HOP92 cells after 48 hrs; format: functional; conditions: Homo sapiens, HOP-92, 48 h
[10] = system: UO-31; assay: Antiproliferative activity against human UO31 cells after 48 hrs; format: functional; conditions: Homo sapiens, UO-31, 48 h
[11] = Plasmodium falciparum, TM91C235
[12] = read-out: LC50 (the source's name)

| Structure (SMILES) | IC50 ([1]; Plasmodium falciparum, W2) [nM] | IC90 ([1]; Plasmodium falciparum, W2) [nM] | IC50 ([2]; Plasmodium falciparum, D6) [nM] | IC90 ([2]; Plasmodium falciparum, D6) [nM] | IC50 [3, 11] [nM] | IC90 [3, 11] [nM] | IC90 [2] [nM] | IC50 [3] [nM] | IC90 [3] [nM] | IC50 [1] [nM] | IC50 [2] [nM] | further results |
| --- | --- | --- | --- | --- | --- | --- | --- | --- | --- | --- | --- | --- |
| COC(=O)CC[C@@H](C)[C@H]1CC[C@H]2[C@@H]3CC[C@@H]4CC5(CC[C@]4(C)[C@H]3C[C@H](OC(C)=O)[C@]12C)OOC1(CCCCC1)OO5 | 112 | 170 | 201 | 258 | – | – | – | – | – | – | – | – |
| CCCN(CCC)C(=O)CC[C@@H](C)[C@H]1CC[C@H]2[C@@H]3CC[C@@H]4CC5(CC[C@]4(C)[C@H]3C[C@H](OC(C)=O)[C@]12C)OOC1(CCCCC1)OO5 | 150 | 169 | 179 | 197 | 169 | 203 | – | – | – | – | – | – |
| CC(=O)O[C@H]1C[C@H]2[C@@H](CC[C@@H]3CC4(CC[C@@]32C)OOC2(CCCCC2)OO4)[C@@H]2CC[C@H]([C@H](C)CCC(N)=O)[C@@]12C | 19.1 | 35.6 | 32.7 | 50.4 | 40.9 | 76.7 | – | – | – | – | – | – |
| CC(=O)O[C@H]1C[C@H]2[C@@H](CC[C@@H]3CC4(CC[C@@]32C)OOC2(CCCCC2)OO4)[C@@H]2CC[C@H]([C@H](C)CCC(=O)N3CCCCC3)[C@@]12C | 55.5 | 78.6 | 106 | 131 | 84.7 | 125 | – | – | – | – | – | – |
| CC(=O)O[C@H]1C[C@H]2[C@@H]([C@H](OC(C)=O)C[C@@H]3CC4(CC[C@@]32C)OOC2(CCCCC2)OO4)[C@@H]2CC[C@H]([C@H](C)CCC(=O)Nc3ccccc3)[C@@]12C | 11.2 | 25.9 | 6.7 | 11.7 | 10.3 | 27.8 | – | – | – | – | – | – |
| CC(=O)O[C@H]1C[C@H]2[C@@H](CC[C@@H]3CC4(CC[C@@]32C)OOC2(CCCCC2)OO4)[C@@H]2CC[C@H]([C@H](C)CCC(=O)NN)[C@@]12C | 347 | – | 347 | – | 347 | – | – | – | – | – | – | – |
| CC(=O)O[C@H]1C[C@H]2[C@@H](CC[C@@H]3CC4(CC[C@@]32C)OOC2(CCCCC2)OO4)[C@@H]2CC[C@H]([C@H](C)CCC(=O)O)[C@@]12C | 93.9 | 178 | 107 | 310 | – | – | – | – | – | – | – | – |
| CC(=O)O[C@H]1C[C@H]2[C@@H](CC[C@@H]3CC4(CC[C@@]32C)OOC2(CCCCC2)OO4)[C@@H]2CC[C@H]([C@H](C)CCC(=O)Nc3ccccc3)[C@@]12C | 81.6 | 195 | 133 | 195 | – | – | – | – | – | – | – | – |
| COC(=O)CC[C@@H](C)[C@H]1CC[C@H]2[C@@H]3CC[C@@H]4CC5(CC[C@]4(C)[C@H]3C[C@H](OC(C)=O)[C@]12C)OOC1(CCC(C)CC1)OO5 (stereo in doubt; 3b) | 34.2 | 49.3 | 39.2 | – | 42.4 | 74.9 | 26 | – | – | – | – | – |
| COC(=O)CC[C@@H](C)[C@H]1CC[C@H]2[C@@H]3CC[C@@H]4CC5(CC[C@]4(C)[C@H]3C[C@H](OC(C)=O)[C@]12C)OOC1(CCC(C)CC1)OO5 (stereo in doubt; 3c) | – | – | – | – | – | – | 62.9 | 50.8 | 77.3 | 38.3 | 38 | IC90 [1]: 80.3 nM |
| CC(=O)O[C@H]1C[C@H]2[C@@H](CC[C@@H]3CC4(CC[C@@]32C)OOC2(CCC(C)CC2)OO4)[C@@H]2CC[C@H]([C@H](C)CCC(=O)O)[C@@]12C (stereo in doubt; 4b) | – | 84.8 | 11.6 | 17.1 | 19.9 | 47 | – | – | – | 12.1 | – | – |
| CC(=O)O[C@H]1C[C@H]2[C@@H](CC[C@@H]3CC4(CC[C@@]32C)OOC2(CCC(C)CC2)OO4)[C@@H]2CC[C@H]([C@H](C)CCC(=O)O)[C@@]12C (stereo in doubt; 4c) | – | – | – | – | – | – | 31.7 | 31.8 | 93 | 42.2 | 19.2 | IC90 [1]: 89.7 nM |
| CC(=O)O[C@H]1C[C@H]2[C@@H](CC[C@@H]3CC4(CC[C@@]32C)OOC2(CCC(C)CC2)OO4)[C@@H]2CC[C@H]([C@H](C)CCC(N)=O)[C@@]12C (stereo in doubt; 13) | – | – | – | – | – | – | 31.4 | 28 | 53.5 | 19.4 | 22.9 | IC90 [1]: 118 nM |
| CCCNC(=O)CC[C@@H](C)[C@H]1CC[C@H]2[C@@H]3CC[C@@H]4CC5(CC[C@]4(C)[C@H]3C[C@H](OC(C)=O)[C@]12C)OOC1(CCC(C)CC1)OO5 (stereo in doubt; 14) | – | 30.5 | – | 20.2 | – | – | – | 12.3 | 23.4 | 10.1 | 9.81 | – |
| CC1CCC2(CC1)OOC1(CC[C@@]3(C)[C@H](CC[C@@H]4[C@@H]3C[C@H](O)[C@]3(C)[C@@H]([C@H](C)CCC(=O)NCCN(C)C)CC[C@@H]43)C1)OO2 (stereo in doubt; 16a) | – | – | – | – | – | – | – | – | – | – | – | LC50 (concentration killing 50% of cells) [4]: > 10000 nM; GI50 ([4]; Homo sapiens, CCRF-CEM, 48 h): 257 nM; TGI ([4]; Homo sapiens, CCRF-CEM, 48 h): 539 nM; GI50 [5]: 626 nM; TGI [5]: 2040 nM; CC50 [5, 12]: 5430 nM; GI50 [6]: 15 nM; GI50 ([7]; Homo sapiens, LOX IMVI, 48 h): 184 nM; LC50 (concentration killing 50% of cells) ([7]; Homo sapiens, LOX IMVI, 48 h): 774 nM; TGI ([7]; Homo sapiens, LOX IMVI, 48 h): 378 nM; TGI [8]: 1010 nM; GI50 ([8]; Homo sapiens, HL-60, 48 h): 377 nM; CC50 [8, 12]: 6090 nM; GI50 [9]: 228 nM; LC50 (concentration killing 50% of cells) [9]: 973 nM; TGI [9]: 471 nM; GI50 [10]: 206 nM; LC50 [10]: 864 nM; TGI [10]: 421 nM |
| CC(=O)O[C@H]1C[C@H]2[C@@H](CC[C@@H]3CC4(CC[C@@]32C)OOC2(CCC(C)CC2)OO4)[C@@H]2CC[C@H]([C@H](C)CCC(=O)Nc3ccccc3)[C@@]12C (stereo in doubt; 18) | – | 38.9 | – | – | – | – | 33.7 | 32.9 | 42.7 | 23.1 | 23.3 | – |
| CC(=O)O[C@H]1C[C@H]2[C@@H](CC[C@@H]3CC4(CC[C@@]32C)OOC2(CCC(C)CC2)OO4)[C@@H]2CC[C@H]([C@H](C)CCC(=O)Nc3ccccc3)[C@@]12C (stereo in doubt; 19) | – | – | – | – | – | – | 77.5 | 66.8 | 109 | 50.8 | 50 | IC90 [1]: 76.9 nM; GI50 ([6]; Homo sapiens, NCI): < 5 nM; GI50 [9]: < 5 nM; LC50 (concentration killing 50% of cells) [9]: 15200 nM; TGI [9]: 130 nM |
| CC(=O)O[C@H]1C[C@H]2[C@@H]([C@H](OC(C)=O)C[C@@H]3CC4(CC[C@@]32C)OOC2(CCC(C)CC2)OO4)[C@@H]2CC[C@H]([C@H](C)CCC(=O)Nc3ccccc3)[C@@]12C (stereo in doubt; 20) | – | – | – | – | – | – | 8.07 | 6.24 | 11 | 7.86 | 5.48 | IC90 [1]: 10.1 nM; GI50 [6]: 160 nM; LC50 (concentration killing 50% of cells) [7]: 1890 nM; GI50 ([7]; Homo sapiens, LOX IMVI, 48 h): 161 nM; TGI ([7]; Homo sapiens, LOX IMVI, 48 h): 417 nM |
| C[C@@H]1CC[C@H]2[C@@H](C)C(=O)O[C@@H]3O[C@@]4(C)CC[C@@H]1[C@]32OO4 [ARTEMISININ] | 6.7 | 11.5 | 9 | 12.8 | 13 | 17.4 | – | – | – | – | – | – |
| CCN(CC)CCCC(C)Nc1ccnc2cc(Cl)ccc12 (stereo unspecified) [CHLOROQUINE] | – | 349 | – | 13.7 | – | – | – | – | – | – | – | – |
| O[C@@H](c1cc(C(F)(F)F)nc2c(C(F)(F)F)cccc12)[C@H]1CCCCN1 [MEFLOQUINE] | – | 8.41 | – | 21.6 | – | 65.7 | – | – | – | – | – | – |
